Where a chain is given by its changes, count along the chain named. Several values for one entry are separate records, joined by “and”; a condition that tells them apart may be missing. Equal entries are not always repeated. Entries after “also recorded” stand apart in the source; their conditions may differ. Where a SMILES comes first, the peptide text is derived from it.

The target of test [1] is T1, β-catenin and E-Cadherin interaction (Homo sapiens, UniProt P35222).
T1 sequence (P35222 1-781): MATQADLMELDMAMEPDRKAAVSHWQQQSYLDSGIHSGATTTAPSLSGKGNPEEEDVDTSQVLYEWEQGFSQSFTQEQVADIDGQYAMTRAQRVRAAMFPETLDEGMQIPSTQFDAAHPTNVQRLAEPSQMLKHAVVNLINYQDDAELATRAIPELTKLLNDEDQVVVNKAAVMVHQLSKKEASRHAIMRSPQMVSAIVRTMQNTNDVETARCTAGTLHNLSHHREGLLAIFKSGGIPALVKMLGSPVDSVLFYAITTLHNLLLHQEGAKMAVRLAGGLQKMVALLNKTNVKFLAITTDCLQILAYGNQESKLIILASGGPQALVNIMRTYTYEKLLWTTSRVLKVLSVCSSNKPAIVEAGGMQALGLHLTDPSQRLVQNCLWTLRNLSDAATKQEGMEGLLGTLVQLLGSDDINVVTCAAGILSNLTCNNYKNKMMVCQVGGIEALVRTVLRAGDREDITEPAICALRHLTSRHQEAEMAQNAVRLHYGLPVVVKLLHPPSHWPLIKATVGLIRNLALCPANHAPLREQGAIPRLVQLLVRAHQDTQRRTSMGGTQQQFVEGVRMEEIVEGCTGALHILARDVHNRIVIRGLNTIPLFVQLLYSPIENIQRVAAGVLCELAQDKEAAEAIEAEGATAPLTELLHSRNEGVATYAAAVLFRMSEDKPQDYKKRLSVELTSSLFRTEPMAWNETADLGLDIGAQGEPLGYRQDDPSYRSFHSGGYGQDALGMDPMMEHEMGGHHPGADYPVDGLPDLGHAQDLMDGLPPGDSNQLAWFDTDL
Nature of the test: Competitive binding assay β-catenin / E-Cadherin-FC fusion. Particulars: immobilized biotinylated β-catenin, 50 nM E-Cadherin-FC fusion, varying amounts of peptide. The method, then: Competitive binding assays were performed (FIG. 3) wherein biotinylated β-catenin was immobilized on streptavidin plates and 50 nM E-Cadherin-FC fusion was added in the presence of varying amounts of the peptide inhibitors (SEQ ID NO: 42).

The next test deals with WNT pathway genes. The experiment in a line: Human WNT Signaling Pathway RT2 Profiler PCR Array in primary cells. The test is classed as cell-based. Particulars: 48 h, compared with ICG001. How it is done:
On-target activity of each peptide was assessed by the transcriptional activity of WNT pathway genes using Qiagen's Human WNT Signaling Pathway RT^2 Profiler PCR Array). Primary cells were administered the therapeutic peptide corresponding to SEQ ID NO: 42 for 48 h. RNA was extracted from the harvested cells and profiled on the array using rtPCR. The array contains 84 genes related to Wnt-mediated signal transduction, including ligands, receptors, downstream signaling molecules, and regulators of the Wnt canonical pathway, two non-canonical pathways, planar cell polarity, and a calcium ion-dependent pathway, 38 of which were assessed here. Positive control of ICG001, a known Wnt inhibitor, was also run on the RNA array to be used as a comparison.

In test [2] the target is T2, β-catenin (Mus musculus, UniProt Q02248).
T2 construct: from tissue; host or cells: endometriosis lesions of the mouse model
T2 sequence (Q02248 1-781): T1 sequence (P35222 1-781) with P706A
Nature of the test: Immunohistochemistry of β-catenin localization in lesions, area thresholding. The test is classed as in vivo. Particulars: IP daily for 3 weeks. The method, then: Endometriosis was established in a mouse model of disease. Mice were allowed to establish endometriosis for 3 weeks. After the first 3 weeks, mice were then intraperitoneally treated daily for 3 weeks with the therapeutic peptides corresponding to SEQ ID NOs: 215 or 393 or untreated negative control. To assess the localization of the peptides and β-catenin, lesions from the endometriosis mouse model were assessed. On the last day of treatment, in order to visualize the peptide localization to the lesion(s), mice were dosed with a biotinylated tagged peptide therapeutic or control. Mice were euthanized, lesions were removed, and fixed in formalin for histology and immunohistochemistry. Fixed and sectioned lesions were incubated with antibodies specific for β-catenin (Cell Signaling, 1:100, Secondary: Fisher Scientific, Goat anti-Rabbit-647 1:200), streptavidin for biotinylated-therapeutic (Fisher Scientific, SA-405 1:100), and Sytox green for nucleus (Fisher Scientific, 1:300). Immunohistochemical negative controls were performed on lesion sections from all treatment groups using IgG non-specific antibodies (Rabbit-IgG, AbCam 1:100).
Quantification of β-catenin localization was performed using the Zeiss Blue Software via thresholding. Thresholding allows the software to calculate the area of staining using pixel intensity; therefore, a quantitative number for staining can be extrapolated for the different cellular compartments (See Table 6).

The target of test [3] is T3, β-catenin (Homo sapiens, UniProt P35222).
T3 sequence (P35222 1-781): T1 sequence (P35222 1-781)
The experiment in a line: KD50 measurement using competitive fluorescence polarization (FP) with labelled TCF4. Format: binding. The following applies: fluorescence polarization, β-catenin; listed as 2. A digest of the protocol:
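Polarization readout (470 nm excitation, 520 nm emission) tracks loss of labelled TCF4 binding to β-catenin as test compound competes. Conditions were 5 nM tracer, 100 nM β-catenin, room temperature, compound serially diluted from 10 nM to 30 uM; run in triplicate experiments.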

The test system of the next test is EMS lesions. The following applies: 5 mg/kg IP daily for three weeks, versus vehicle.

Text for EMS lesions: Lesions were established in an EMS mouse model of endometriosis by intraperitoneal injection of minced GFP+ uterine tissue from a mouse into wild-type c57/b16 mice. […] Endometrial disease was established in the mice and allowed to progress for three weeks prior to the initiation of therapy.

On to `CC[C@H](C)[C@H](NC(=O)[C@H](CC(C)C)NC(=O)[C@H](Cc1ccccc1)NC(=O)[C@H](Cc1c[nH]c2ccccc12)NC(=O)[C@@H](N)CCSC)C(=O)N[C@@H](CS)C(=O)N[C@@H](Cc1ccccc1)C(=O)N[C@@H](Cc1c[nH]c2ccccc12)C(=O)NCC(=O)O` [SEQ ID NO: 42] (H-MWFLICFWG-OH), for which the “Inhibition of the β-catenin and E-Cadherin interaction” value in test [1] is listed as “None of the doses tested inhibited”. The “Inhibition of gene transcripts within the Wnt pathway” value in the test on WNT pathway genes was “outperformed the known positive control; also recorded: potent and specific Wnt inhibitor”.
On to `CCCC[C@@H]1NC(=O)[C@@H](NC(C)=O)CCCCNC(=O)C[C@@H](C(=O)O)NC(=O)[C@H](Cc2c[nH]c3ccccc23)NC(=O)[C@H](C)NC(=O)[C@H](CC)NC(=O)[C@H]([C@@H](C)CC)NC(=O)[C@H](CC(C)C)NC(=O)[C@H](CC2CCCCC2)NC(=O)[C@H](Cc2c[nH]c3ccccc23)NC1=O` [SEQ ID NO: 215, Cyclo-Ac-K*Nle-W-Cha-LI-Abu-AWD*-COOH] (HELM PEPTIDE1{[ac].K.[Nle].W.[Cha].L.I.[Abu].A.W.D}$PEPTIDE1,PEPTIDE1,2:R3-11:R3$$$V2.0), for which, on β-catenin [2] (average of lesion samples), the “% membrane bound β-catenin (staining area threshold), Average” value was 46.4% and the “% nuclear β-catenin (staining area threshold), Average” value was determined as 1.0%. In addition, the “% nuclear β-catenin (staining area threshold)” value on β-catenin [2] (single lesion sample, listed as Peptide 2) is 0.8% and 1.2% and 1.1%. Besides, the “β-Cat FP Hill slope” value on β-catenin [3] stood at 0.82. Further, in the test on EMS lesions, the Activated macrophages result was “relative increase”; the “Relative numbers of activated macrophages, foam cells, polymorphonuclear neutrophils, B cells and T cells at the site of lesions (histology)” value is recorded as “increase in the relative numbers”.

These data come from US12441768B2, “Compositions and methods for treating endometriosis” (EndoMet Biosciences, Inc., priority 2018, dated 2025).
